# According to ChEMBL document CHEMBL5390254, “Discovery and Optimization of Novel hDHODH Inhibitors for the Treatment of Inflammatory Bowel Disease” (J Med Chem, 2023):
# Activity calls are given as the source filed them. The rule behind the calls is not given here.
# Experiments:
# [1] = Clearance in Sprague-Dawley rat at 15 mg/kg, po and measured upto 48 hrs by LC-MS/MS analysis; format: ADME, organism-based; settings: in vivo
# [2] = Acute toxicity in po dosed BALB/c mouse assessed as maximum tolerate dose; format: organism-based; settings: in vivo
# [3] = Metabolic stability in human liver microsomes assessed as half life at 3 uM incubated upto 90 mins in presence of NADPH by LC-MS/MS analysis; format: ADME, Microsome
# [4] = Acute toxicity in BALB/c mouse assessed as changes in UA level in serum at 600 mg/kg,po and measured after 14 days by Biochemistry analysis; format: organism-based; settings: in vivo, 336 h, time 14 day
# [5] = AUCt in Sprague-Dawley rat at 15 mg/kg, po and measured upto 48 hrs by LC-MS/MS analysis; format: ADME, organism-based; set-up: dose 15 mg/kg, time < 48 hrs, route po; settings: in vivo
# [6] = Metabolic stability in rat liver microsomes assessed as intrinsic clearance at 3 uM incubated upto 90 mins in presence of NADPH by LC-MS/MS analysis; format: ADME, Microsome; settings: read-out: CLH
# Mus musculus [7] = assay: Anti-inflammatory activity against DSS-induced acute ulcerative colitis in C57BL/6 mouse model assessed as decrease in DAI score at 40 mg/kg, po QD for 6 days; format: functional, organism-based; settings: time 6.0 day
# Mus musculus [8] = assay: Anti-inflammatory activity against DSS-induced acute ulcerative colitis in C57BL/6 mouse model assessed as decrease in colon length shortening at 40 mg/kg, po QD for 6 days (Rvb= 5.5cm); format: functional; settings: time 6 day
# [9] = Acute toxicity in BALB/c mouse assessed as changes in general health status at 600 mg/kg,po and measured for 14 days; format: organism-based; settings: in vivo, 336 h, time 14 day
# [10] = Oral bioavailability in Sprague-Dawley rat at 15 mg/kg and measured upto 48 hrs by LC-MS/MS analysis; format: ADME, organism-based; settings: in vivo
# Mus musculus [11] = assay: Anti-inflammatory activity against DSS-induced acute ulcerative colitis in C57BL/6 mouse model assessed as decrease in IL-1beta mRNA expression level in colon at 20 to 80 mg/kg, po QD for 6 days by RT-qPCR analysis; format: functional, organism-based; settings: dose 20-80 mg/kg, time 6.0 day
# [12] = Acute toxicity in BALB/c mouse assessed as tissue damage in liver at 600 mg/kg,po and measured after 14 days by hematoxylin and eosin staining based microscopy; format: organism-based; settings: in vivo, 336 h, time 14 day
# [13] = 1-octanol/water partition coefficient, logP of the compound at 2 mg by UPLC analysis; format: physicochemical
# [14] = Acute toxicity in BALB/c mouse assessed as changes in platelet count in blood at 600 mg/kg,po and measured after 14 days by hematology test; format: organism-based; settings: in vivo, 336 h, time 14 day
# Mus musculus [15] = assay: Anti-inflammatory activity against DSS-induced acute ulcerative colitis in C57BL/6 mouse model assessed as decrease in IL-1beta protein level in colon at 20 to 80 mg/kg, po QD for 6 days by ELISA; format: functional, organism-based; settings: dose 20-80 mg/kg, time 6.0 day
# Mus musculus [16] = assay: Anti-inflammatory activity against DSS-induced acute ulcerative colitis in C57BL/6 mouse model assessed as recovery in colon damage at 20 to 80 mg/kg, po QD for 6 days by H and E staining based microscopy; format: functional, organism-based; settings: dose 20-80 mg/kg, time 6.0 day
# Mus musculus [17] = assay: Anti-inflammatory activity against DSS-induced acute ulcerative colitis in C57BL/6 mouse model assessed as decrease in body weight loss at 20 mg/kg, po QD for 6 days (Rvb= -13.4%); format: functional; set-up: scale not given: the % may be the effect or the level left; settings: time 6 day
# Mus musculus [18] = assay: Anti-inflammatory activity against DSS-induced acute ulcerative colitis in C57BL/6 mouse model assessed as increase in colon length at 20 mg/kg, po QD for 6 days (Rvb= 5.3cm); format: functional; settings: time 6 day
# [19] = Acute toxicity in BALB/c mouse assessed as changes in ALP level in serum at 600 mg/kg,po and measured after 14 days by Biochemistry analysis; format: organism-based; settings: in vivo, 336 h, time 14 day
# Mus musculus [20] = assay: Anti-inflammatory activity against DSS-induced acute ulcerative colitis in C57BL/6 mouse model assessed as decrease in IL-6 production in colon at 40 mg/kg, po QD for 6 days by ELISA; format: functional; set-up: scale not given: the % may be the effect or the level left; settings: time 6 day
# [21] = Acute toxicity in BALB/c mouse assessed as changes in RBC level in blood at 600 mg/kg,po and measured after 14 days by hematology test; format: organism-based, Erythrocyte; settings: in vivo, 336 h, time 14 day
# [22] = Metabolic stability in mouse liver microsomes assessed as intrinsic clearance at 3 uM incubated upto 90 mins in presence of NADPH by LC-MS/MS analysis; format: ADME, Microsome; settings: read-out: CLH
# Mus musculus [23] = assay: Anti-inflammatory activity against DSS-induced acute ulcerative colitis in C57BL/6 mouse model assessed as increase in colon length at 40 mg/kg, po QD for 6 days (Rvb= 5.3cm); format: functional; settings: time 6 day
# [24] = Acute toxicity in BALB/c mouse assessed as changes in hematocrit level in blood at 600 mg/kg,po and measured after 14 days by hematology test; format: organism-based; settings: in vivo, 336 h, time 14 day
# [25] = Acute toxicity in BALB/c mouse assessed as changes in neutrophil level in blood at 600 mg/kg,po and measured after 14 days by hematology test; format: organism-based; settings: in vivo, 336 h, time 14 day
# [26] = Half life in Sprague-Dawley rat at 5 mg/kg, iv and measured upto 48 hrs by LC-MS/MS analysis; format: ADME, organism-based; settings: in vivo
# [27] = Acute toxicity in BALB/c mouse assessed as changes in TP level in serum at 600 mg/kg,po and measured after 14 days by Biochemistry analysis; format: organism-based; settings: in vivo, 336 h, time 14 day
# [28] = Drug distribution in colon of DSS-induced acute ulcerative colitis in C57BL/6 mouse model at 40 mg/kg,po and measured after 2 hrs by LC-MS/MS analysis; format: ADME, organism-based; settings: in vivo
# [29] = Acute toxicity in BALB/c mouse assessed as changes in CREA level in serum at 600 mg/kg,po and measured after 14 days by Biochemistry analysis; format: organism-based; settings: in vivo, 336 h, time 14 day
# [30] = Acute toxicity in BALB/c mouse assessed as changes in ALB level in serum at 600 mg/kg,po and measured after 14 days by Biochemistry analysis; format: organism-based; settings: in vivo, 336 h, time 14 day
# Mus musculus [31] = assay: Anti-inflammatory activity against DSS-induced acute ulcerative colitis in C57BL/6 mouse model assessed as decrease in body weight loss at 40 mg/kg, po QD for 6 days (Rvb= 25.6%); format: functional; set-up: scale not given: the % may be the effect or the level left; settings: time 6 day
# [32] = Acute toxicity in BALB/c mouse assessed as body weight loss at 600 mg/kg,po and measured for 14 days; format: organism-based; settings: in vivo, 336 h, time 14 day
# Mus musculus [33] = assay: Anti-inflammatory activity against DSS-induced acute ulcerative colitis in C57BL/6 mouse model assessed as decrease in colon tissue damage score at 40 mg/kg, po QD for 6 days relative to DSS group; format: functional; set-up: scale not given: the % may be the effect or the level left; settings: time 6 day
# [34] = Acute toxicity in BALB/c mouse assessed as tissue damage in lung at 600 mg/kg,po and measured after 14 days by hematoxylin and eosin staining based microscopy; format: organism-based; settings: in vivo, 336 h, time 14 day
# [35] = Apparent volume of distribution during terminal phase in Sprague-Dawley rat at 15 mg/kg, po and measured upto 48 hrs by LC-MS/MS analysis; format: ADME, organism-based; settings: in vivo, read-out: Vz/F
compound,measurement,setting,value
Nc1nc(-c2cn(Cc3c(F)cccc3Cl)c3ncccc23)ncc1C1CC1,CL/F,[1],21.7 mL/min/kg
same,MTD,[2],600 mg/kg
same,half-life at 3 µM,[3],0.315 h
same,Activity,[4],Non-Toxic
same,AUC(0-t) at 48 h,[5],11600 ng·h/mL
same,CLint scaled at 3 µM,[6],319 mL/min/kg
same,Activity,Mus musculus [7],Active
same,Activity,Mus musculus [8],7 cm
same,Activity,[9],Non-Toxic
same,bioavailability,[10],21.7%
same,Activity,Mus musculus [11],Dose-Dependent Effect
same,Activity,[12],Non-Toxic
same,logP,[13],5.3
same,Activity,[14],Non-Toxic
same,Activity,Mus musculus [15],Dose-Dependent Effect
same,Activity,Mus musculus [16],Dose-Dependent Effect
same,Activity,Mus musculus [17],-5.1%
same,Activity,Mus musculus [18],6.1 cm
same,Activity,[19],Non-Toxic
same,Activity,Mus musculus [20],77.73%
same,Activity,[21],Non-Toxic
same,CLint scaled at 3 µM,[22],581 mL/min/kg
same,Activity,Mus musculus [23],6.7 cm
same,Activity,[24],Non-Toxic
same,Activity,[25],Non-Toxic
same,half-life,[26],2.6 h
same,Activity,[27],Non-Toxic
same,Drug uptake,[28],Active
same,Activity,[29],Non-Toxic
same,Activity,[30],Non-Toxic
same,Activity,Mus musculus [31],7.4%
same,Activity,[32],Non-Toxic
same,Activity,Mus musculus [33],54.55%
same,Activity,[34],Non-Toxic
same,Vd/F,[35],2.95 L/kg
